Each block holds one molecule with its values, some of them ahead of it. Starred links: 1 amine or outer side, 2 acyl side, 3 side chain; linkers in the order of their positions; H or OH if unused. Non-standard residues stand in square brackets, D forms with d. Residues, ends and D or L forms follow the SMILES beside them. Groups on a side chain read outwards from the residue. *: point of attachment. DOTA = O=C(O)CN1CCN(CC(=O)O)CCN(CC(=O)*)CCN(CC(=O)O)CC1; NH(2-(imidazol-4-yl)ethyl) = c1ncc(CCN*)[nH]1; Suc = O=C(CCC(=O)[*:2])[*:1]; X1 = NC(=S)NN=CC(=O)*
Experiments:
[1] = test system: GW-39 (CEA positive) tumors; design: species or system nude mice; settings: mouse, in vivo
Experimental: The utility of BS14HP for tumor pretargeting was evaluated in GW-39 tumor-bearing mice using a bivalent HSG peptide (IMP-241) labeled with ^111In. IMP-241 has a structure of DOTA-Phe-Lys(HSG)-D-Tyr-Lys(HSG)-NH2, where the N-terminal amino group of Phe is linked to a DOTA and the epsilon amino group of each lysine is derivatived with an HSG group. The tetrapeptide backbone (Phe-Lys-(D-Tyr)-Lys) contains a d-amino acid (D-Tyr) and the carboxyl group of the C-terminal lys is amidated.
(§1) The results from this analysis were compared with those of chemically linked hMN-14×679 (Fab′×Fab′) and BS1.5H (bispecific diabody). Nude mice bearing GW-39 (CEA positive) tumors were pre-targeted with BS14HP, BS1.5H or hMN-14×679. Initially, the bio-distribution was followed with ^131I-labeled bispecific agent. The tumor residence and blood clearance of ^131I-BS14HP is depicted in FIG. 7. As determined in preliminary experiments, the time interval between administration of bispecific targeting agent and of ^111In-IMP241 peptide is the amount of time required for the former to clear the blood to a concentration of 1% ID/g or less. […] IMP-241 (Immunomedics, Inc), a peptide containing two HSG groups and a DOTA moiety, was loaded with ^111Indium and injected in pre-targeted mice. The bio-distribution of the ^111In-IMP-241 was examined at 3 hours after injection (FIG. 8A) and the tumor/non-tumor ratios are shown in FIG. 8B.

in vivo = assay: in vivo; design: species or system nude mice; settings: nude, mouse
Experimental: (§2) IMP-245 was prepared and labeled using standard techniques known in the art. See, for example, published application US20030198595 (now issued U.S. Pat. No. 7,138,103), which is hereby incorporated by reference in its entirety. The experiment used 3 groups of 15 mice, each of which was necropsied, and 1 group of 5 mice that was imaged. Three groups of mice were administered 6 μCi ^125I-hBS14 (40 μg, 5.0×10^−10 moles). In the last group (imaging group), 3 mice received unlabeled hBS14. The amount of ^99mTc-IMP-245 administered to all the mice was ˜40 μCi (92 ng, 5.0×10^−11 moles) for a bispecific:peptide ratio of 10:1. […] Due to differences in tumor growth rates, only 20 mice were initially available for administration of hBS14. Fifteen mice were used to fill out Group II while 5 mice were used for Group I. The remaining mice (including the imaged mice) were injected one week later. Not all the mice implanted with GW-39 tumors developed usable tumors and, therefore, Group I only had 10 mice and were sacrificed at 1 hr post-peptide injection and 24 hrs post-injection.

[2] = test system: human colonic tumor (GW-39) xenograft; assay: in vivo; design: species or system nude mice; settings: mouse
Experimental: as §2

[3] = test system: WI2 IgG, an anti idiotypic antibody to hMN-14; assay: BIAcore WI2 molar binding ratio of bispecific protein captured on HSG sensorchip; design: species or system rat; settings: protein bound to HSG sensorchip, then WI2; theoretical maximum 1.0 for two CEA binding sites
Experimental: The analysis step is as follows. Samples of the culture media were diluted 1:5 in EB buffer (150 mM NaCl; 50 μM EDTA; 0.005% surfactant P20; 10 mM HEPES, pH 7.4) and injected ([…]) over a high-density, HSG-coupled sensorchip in a BIAcoreX system. Following injection of the diluted media, EB containing 20 μg/ml of WI2 IgG, an anti idiotypic antibody to hMN-14, was injected ([…]) over the sensorchip to confirm bispecific binding. The initial binding slopes were used to quantitate yields. Seven of the nine zeocin resistant clones tested produced bispecific protein with a yield of up to 3 mg per liter of culture media.
The W12:BS14HP molar binding ratio can be derived by comparison of the response units (RU) attained from BS14HP binding to the HSG sensorchip with the further RU increase from W12 binding to BS14HP with normalization for the respective molecular weights. Several BS14HP preps were analyzed with the measured ratio ranging from 0.8-0.9. […]
If the W12 binding is allowed to approach saturation, the stoichiometry of the binding can be determined. […] As each increase in RU level is directly proportional to the mass bound, the WI2:bsAb molar binding ratio can be calculated using the formula (RUWI2/RUhBS14)×(MWhBS14/MWWI2). hBS14 was designed to be bivalent for CEA (and monovalent for HSG) and as such should bind W12 (also bivalent) with a 1:1 molar ratio. […]

[4] = Blood clearance of radioiodinated bispecific agents in GW-39 tumor-bearing nude mice; type: in vivo; settings: 131I-labeled bispecific agent, preliminary experiments
Excerpt: as §1

Molecule: C[C@@H](NC(=O)CN1CCN(CC(=O)O)CCN(CC(=O)O)CCN(CC(=O)O)CC1)C(=O)N[C@H](CCCCNC(=O)CNC(=O)CCC(=O)NCCc1cnc[nH]1)C(=O)N[C@H](CCC(=O)O)C(=O)N[C@H](CCCCNC(=O)CNC(=O)CCC(=O)NCCc1cnc[nH]1)C(N)=O [IMP281] ({DOTA}-[dA][dK]([Gly-Suc-NH(2-(imidazol-4-yl)ethyl)])[dE][dK]([Gly-Suc-NH(2-(imidazol-4-yl)ethyl)])-NH2)
pretargeting experiments performed again with other peptides [1]: same results

Molecule: NC(=O)[C@@H](CCCCNC(=O)CNC(=O)CCC(=O)NCCc1cnc[nH]1)NC(=O)[C@@H](Cc1ccc(O)cc1)NC(=O)[C@@H](CCCCNC(=O)CNC(=O)CCC(=O)NCCc1cnc[nH]1)NC(=O)[C@@H](Cc1ccccc1)NC(=O)CN1CCN(CC(=O)O)CCN(CC(=O)O)CCN(CC(=O)O)CC1 [IMP284] ({DOTA}-[dF][dK]([Gly-Suc-NH(2-(imidazol-4-yl)ethyl)])[dY][dK]([Gly-Suc-NH(2-(imidazol-4-yl)ethyl)])-NH2)
pretargeting experiments performed again with other peptides [1]: same results

Molecule: NC(=O)[C@@H](CCCCNC(=O)CNC(=O)CCC(=O)NCCc1c[nH]cn1)NC(=O)[C@@H](CCC(=O)O)NC(=O)[C@@H](CCCCNC(=O)CNC(=O)CCC(=O)NCCc1c[nH]cn1)NC(=O)[C@@H](Cc1ccc(O)cc1)NC(=O)CN1CCN(CC(=O)O)CCN(CC(=O)O)CCN(CC(=O)O)CC1 [IMP288] ({DOTA}-[dY][dK]([Gly-Suc-NH(2-(imidazol-4-yl)ethyl)])[dE][dK]([Gly-Suc-NH(2-(imidazol-4-yl)ethyl)])-NH2)
pretargeting experiments performed again with other peptides [1]: same results

Continued, in another order:

tissue uptake at 1 h (in vivo): 36.9 ± 6.42 %ID/g
tissue uptake at 24 h (in vivo): 3.81 ± 0.8 %ID/g
tissue uptake at 24 h (in vivo; 92 ng): 3.71 ± 0.43 %ID/g
tissue uptake at 24 h (in vivo; 92 ng, tumor uptake): 0.3 ± 0.08 %ID/g
tissue uptake at 4 h (in vivo; tumor uptake): 15.9 ± 16.3 %ID/g
fold less peptide than hBS14 in the tumor [2]: 4.7 fold
fold more IMP-245 in the tumor versus hBS14 [2]: 2.4 fold
fold more IMP-245 than hBS14 in the tumors [2]: Approximately 2 fold
relative amount of actual signal in the tumors, fold less [2]: 13 fold
tumor uptake ([2]; nude, 4 h): 14.53±4.90 % ID/g
Molecule: NC(=O)[C@H](CCCCNC(=O)[C@H](CS)NC(=O)C=NNC(N)=S)NC(=O)[C@H](CCCCNC(=O)CNC(=O)CCC(=O)NCCc1c[nH]cn1)NC(=O)[C@@H](Cc1ccc(O)cc1)NC(=O)[C@H](CCCCNC(=O)CNC(=O)CCC(=O)NCCc1c[nH]cn1)NC(=O)[C@H](Cc1ccccc1)NC(=O)CN1CCN(CC(=O)O)CCN(CC(=O)O)CCN(CC(=O)O)CC1 [IMP-245] ({DOTA}-FK([Gly-Suc-NH(2-(imidazol-4-yl)ethyl)])[dY]K([Gly-Suc-NH(2-(imidazol-4-yl)ethyl)])K([Cys-X1])-NH2; N-terminus and C-terminus assumed)

WI2:bsAb molar binding ratio [3]: 0.8-0.9
B1: BS14HP: bispecific trivalent heterodimer (SEQ ID NO:1 and 2) from Pichia pastoris, two binding sites for CEA and one for HSG (antibody)
heavy: EAEAEFMEVQLVESGGDLVKPGGSLKLSCAASGFTFSIYTMSWLRQTPGKGLEWVATLSGDGDDIYYPDSVKGRFTISRDNAKNSLYLQMNSLRAEDTALYYCARVRLGDWDFDVWGQGTTVSVSSGGGGSDIQLTQSPSSLSASVGDRVTITCKASQDVGTSVAWYQQKPGKAPKLLIYWTSTRHTGVPSRFSGSGSGTDFTFTISSLQPEDIATYYCQQYSLYRSFGQGTKVEIKRLEGGGSEVQLVESGGGVVQPGRSLRLSCSASGFDFTTYWMSWVRQAPGKGLEWIGEIHPDSSTINYAPSLKDRFTISRDNAKNTLFLQMDSLRPEDTGVYFCASLYFGFPWFAYWGQGTPVTVSVDHHHHHH
light: EAEAEFDIQLTQSPSSLSASVGDRVTITCKASQDVGTSVAWYQQKPGKAPKLLIYWTSTRHTGVPSRFSGSGSGTDFTFTISSLQPEDIATYYCQQYSLYRSFGQGTKVEIKRGGGQFMEVQLVESGGGVVQPGRSLRLSCSASGFDFTTYWMSWVRQAPGKGLEWIGEIHPDSSTINYAPSLKDRFTISRDNAKNTLFLQMDSLRPEDTGVYFCASLYFGFPWFAYWGQGTPVTVSGGGGSDIVMTQSPSSLAVSPGERVTLTCKSSQSLFNSRTRKNYLGWYQQKPGQSPKLLIYWASTRESGVPDRFSGSGSGTDFTLTINSLQAEDVAVYYCTQVYYLCTFGAGTKLELKRLDHHHHHH
pre-targeting clearance time (time to clear the blood to 1% ID/g or less) [4]: 24 h
111In-IMP241 peptide specifically bound to the tumor, compared to mice pretargeted with BS1.5H or hMN14×679 [1]: approximately three-fold
